Experimental data published in patent US20240246942A1, “KINASE INHIBITORS FOR THE TREATMENT OF NEURODEGENERATIVE DISEASES” (priority 2020, published 2024).

Assays:
Test in all cases: biochemical
[1] = molecular target: T1, panel of 374 wild-type kinases (Homo sapiens, UniProt Q9H2G2); details: read-out: % Enzyme Activity (relative to DMSO controls), kinase SLK/STK2
T1 construct: purchased Reaction Biology Corporation

[2] = molecular target: T2, panel of 374 wild-type kinases (Homo sapiens, UniProt O94806); details: read-out: % Enzyme Activity (relative to DMSO controls), kinase PKCnu/PRKD3
T2 construct: purchased Reaction Biology Corporation
T2 sequence (O94806 1-890): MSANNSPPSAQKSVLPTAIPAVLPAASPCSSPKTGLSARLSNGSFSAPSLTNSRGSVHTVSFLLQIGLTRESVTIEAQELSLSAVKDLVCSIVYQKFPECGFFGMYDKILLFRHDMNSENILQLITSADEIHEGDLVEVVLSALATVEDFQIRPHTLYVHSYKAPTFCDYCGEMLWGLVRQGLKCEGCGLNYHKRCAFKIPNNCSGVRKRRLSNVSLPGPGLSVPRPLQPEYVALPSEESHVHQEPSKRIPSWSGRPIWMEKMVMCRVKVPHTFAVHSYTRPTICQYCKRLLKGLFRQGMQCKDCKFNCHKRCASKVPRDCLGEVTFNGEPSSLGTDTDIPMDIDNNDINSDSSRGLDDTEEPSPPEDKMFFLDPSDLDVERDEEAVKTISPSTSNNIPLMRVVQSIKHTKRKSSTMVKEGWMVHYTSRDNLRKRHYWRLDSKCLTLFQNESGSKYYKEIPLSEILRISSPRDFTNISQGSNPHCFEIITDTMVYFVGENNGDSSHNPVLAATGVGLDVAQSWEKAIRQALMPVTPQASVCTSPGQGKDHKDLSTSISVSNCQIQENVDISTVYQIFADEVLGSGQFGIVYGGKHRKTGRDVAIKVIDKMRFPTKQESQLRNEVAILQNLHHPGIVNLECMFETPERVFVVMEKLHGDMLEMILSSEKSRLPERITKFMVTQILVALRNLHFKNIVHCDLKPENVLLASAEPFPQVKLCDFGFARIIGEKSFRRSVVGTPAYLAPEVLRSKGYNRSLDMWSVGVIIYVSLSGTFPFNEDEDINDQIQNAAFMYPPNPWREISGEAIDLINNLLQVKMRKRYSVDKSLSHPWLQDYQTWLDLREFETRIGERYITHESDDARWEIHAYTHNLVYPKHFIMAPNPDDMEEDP

[3] = molecular target: T3, panel of 374 wild-type kinases (Homo sapiens, UniProt P29320); details: read-out: % Enzyme Activity (relative to DMSO controls), EPHA3
T3 construct: purchased Reaction Biology Corporation
T3 sequence (P29320 21-983): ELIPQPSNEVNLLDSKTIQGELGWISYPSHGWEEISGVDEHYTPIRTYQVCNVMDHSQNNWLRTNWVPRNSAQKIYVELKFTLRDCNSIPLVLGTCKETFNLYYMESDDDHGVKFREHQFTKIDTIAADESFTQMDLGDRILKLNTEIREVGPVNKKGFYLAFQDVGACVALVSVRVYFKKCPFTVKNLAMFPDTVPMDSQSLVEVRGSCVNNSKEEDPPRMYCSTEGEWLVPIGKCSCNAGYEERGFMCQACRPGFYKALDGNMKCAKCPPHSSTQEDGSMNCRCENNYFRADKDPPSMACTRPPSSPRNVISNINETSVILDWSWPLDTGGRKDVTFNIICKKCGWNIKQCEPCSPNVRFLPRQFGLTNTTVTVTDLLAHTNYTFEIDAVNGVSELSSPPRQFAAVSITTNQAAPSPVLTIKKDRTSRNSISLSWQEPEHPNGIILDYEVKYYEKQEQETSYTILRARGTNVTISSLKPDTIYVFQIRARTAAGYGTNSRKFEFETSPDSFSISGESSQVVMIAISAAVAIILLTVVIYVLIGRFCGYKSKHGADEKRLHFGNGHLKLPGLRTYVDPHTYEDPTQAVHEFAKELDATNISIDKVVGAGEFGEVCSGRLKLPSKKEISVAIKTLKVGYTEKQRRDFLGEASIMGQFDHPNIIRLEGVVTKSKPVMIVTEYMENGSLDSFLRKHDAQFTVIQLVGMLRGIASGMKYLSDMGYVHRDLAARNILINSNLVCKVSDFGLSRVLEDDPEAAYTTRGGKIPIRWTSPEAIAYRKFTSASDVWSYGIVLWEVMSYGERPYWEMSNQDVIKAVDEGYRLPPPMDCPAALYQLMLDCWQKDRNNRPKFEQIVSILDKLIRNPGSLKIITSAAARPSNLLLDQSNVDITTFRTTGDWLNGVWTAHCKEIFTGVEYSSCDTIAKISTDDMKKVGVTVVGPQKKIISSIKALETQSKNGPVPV

[4] = molecular target: T4, panel of 374 wild-type kinases (Homo sapiens, UniProt Q7L7X3); details: read-out: % Enzyme Activity (relative to DMSO controls), kinase TAOK1
T4 construct: purchased Reaction Biology Corporation
T4 sequence (Q7L7X3 1-1001): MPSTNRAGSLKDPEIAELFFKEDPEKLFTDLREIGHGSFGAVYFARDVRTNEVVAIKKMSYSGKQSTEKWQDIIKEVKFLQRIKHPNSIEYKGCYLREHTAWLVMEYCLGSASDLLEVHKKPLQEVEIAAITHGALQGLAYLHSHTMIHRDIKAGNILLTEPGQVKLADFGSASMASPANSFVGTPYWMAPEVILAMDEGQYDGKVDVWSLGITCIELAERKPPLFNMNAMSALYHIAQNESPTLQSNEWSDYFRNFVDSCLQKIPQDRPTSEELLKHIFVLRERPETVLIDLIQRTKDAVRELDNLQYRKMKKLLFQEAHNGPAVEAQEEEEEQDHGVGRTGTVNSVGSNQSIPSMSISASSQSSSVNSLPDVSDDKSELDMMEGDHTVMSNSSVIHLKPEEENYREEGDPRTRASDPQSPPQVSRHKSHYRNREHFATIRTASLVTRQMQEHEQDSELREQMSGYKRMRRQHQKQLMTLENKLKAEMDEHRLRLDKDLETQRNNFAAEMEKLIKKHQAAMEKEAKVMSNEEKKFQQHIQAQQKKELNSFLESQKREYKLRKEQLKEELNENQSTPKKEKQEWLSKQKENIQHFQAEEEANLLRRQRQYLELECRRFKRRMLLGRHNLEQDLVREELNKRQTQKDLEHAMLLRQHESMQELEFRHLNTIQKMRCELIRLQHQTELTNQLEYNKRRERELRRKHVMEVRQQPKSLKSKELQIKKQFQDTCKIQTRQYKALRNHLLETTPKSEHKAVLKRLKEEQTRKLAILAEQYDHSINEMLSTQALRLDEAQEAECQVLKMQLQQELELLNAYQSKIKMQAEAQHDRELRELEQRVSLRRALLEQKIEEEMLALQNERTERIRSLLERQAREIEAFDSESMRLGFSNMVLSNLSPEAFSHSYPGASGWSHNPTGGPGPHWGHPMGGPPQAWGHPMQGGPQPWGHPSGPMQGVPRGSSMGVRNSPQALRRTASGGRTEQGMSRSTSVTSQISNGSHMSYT

T1 sequence (Q9H2G2 whole entry): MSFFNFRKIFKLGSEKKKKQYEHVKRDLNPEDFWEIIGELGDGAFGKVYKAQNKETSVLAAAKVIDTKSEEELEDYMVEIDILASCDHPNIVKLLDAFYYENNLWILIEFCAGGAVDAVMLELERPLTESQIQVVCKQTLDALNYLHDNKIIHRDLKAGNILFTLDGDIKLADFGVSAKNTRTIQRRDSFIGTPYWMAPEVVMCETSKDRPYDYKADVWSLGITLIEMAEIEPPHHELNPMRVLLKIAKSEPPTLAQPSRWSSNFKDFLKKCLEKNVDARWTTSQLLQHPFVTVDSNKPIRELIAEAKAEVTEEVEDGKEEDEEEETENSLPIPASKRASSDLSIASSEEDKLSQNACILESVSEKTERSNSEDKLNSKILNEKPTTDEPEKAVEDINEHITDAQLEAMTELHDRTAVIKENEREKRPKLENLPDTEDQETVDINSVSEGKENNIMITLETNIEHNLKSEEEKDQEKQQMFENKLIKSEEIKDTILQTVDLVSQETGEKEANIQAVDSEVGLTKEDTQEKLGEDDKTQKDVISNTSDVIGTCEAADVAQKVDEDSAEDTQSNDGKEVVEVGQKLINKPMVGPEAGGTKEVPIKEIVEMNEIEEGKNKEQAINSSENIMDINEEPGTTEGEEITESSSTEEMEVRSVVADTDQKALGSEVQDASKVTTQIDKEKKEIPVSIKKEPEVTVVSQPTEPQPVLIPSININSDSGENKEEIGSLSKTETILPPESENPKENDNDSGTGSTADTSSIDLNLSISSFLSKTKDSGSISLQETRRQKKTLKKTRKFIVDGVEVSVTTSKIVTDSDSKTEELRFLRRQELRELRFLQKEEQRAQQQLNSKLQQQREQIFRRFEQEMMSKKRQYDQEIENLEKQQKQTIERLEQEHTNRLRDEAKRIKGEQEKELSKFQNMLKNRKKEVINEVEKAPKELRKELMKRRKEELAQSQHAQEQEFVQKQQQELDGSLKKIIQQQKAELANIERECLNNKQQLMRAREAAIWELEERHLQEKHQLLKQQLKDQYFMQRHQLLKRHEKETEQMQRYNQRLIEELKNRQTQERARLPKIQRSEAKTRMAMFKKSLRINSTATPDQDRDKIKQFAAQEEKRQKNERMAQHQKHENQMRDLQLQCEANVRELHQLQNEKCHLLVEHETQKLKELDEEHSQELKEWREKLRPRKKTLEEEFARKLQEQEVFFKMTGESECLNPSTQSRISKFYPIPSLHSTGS

| SMILES | remaining activity at 5 µM [1] | remaining activity at 5 µM [2] | remaining activity at 5 µM [3] | remaining activity at 5 µM [4] | remaining activity at 10 µM ([1]; 10 uM) | remaining activity at 10 µM ([2]; 10 uM) | remaining activity at 10 µM ([3]; 10 uM) | remaining activity at 10 µM ([4]; 10 uM) |
| --- | --- | --- | --- | --- | --- | --- | --- | --- |
| O=C(Nc1cnn(-c2csc(C(=O)NC3COC3)c2)c1)Nc1ccccc1Cl [Compound 17, 4-(4-(3-(2-chlorophenyl)ureido)-1H-pyrazol-1-yl)-N-(oxetan-3-yl)thiophene-2-carboxamide] | 89.7% | 104% | 104% | 122% | – | – | – | – |
| Cc1sc(C(=O)NC2COC2)cc1-n1cc(NC(=O)Nc2c(F)cccc2Cl)cn1 [Compound 27, 4-(4-(3-(2-chloro-6-fluorophenyl)ureido)-1H-pyrazol-1-yl)-5-methyl-N-(oxetan-3-yl)thiophene-2-carboxamide] | – | – | – | – | 99.7% | 105% | 109% | 110% |
| O=C(Nc1cnn(-c2csc(C(=O)NC3COC3)c2)c1)Nc1c(F)cccc1Cl [Compound 25, 4-(4-(3-(2-chloro-6-fluorophenyl)ureido)-1H-pyrazol-1-yl)-N-(oxetan-3-yl)thiophene-2-carboxamide] | 95% | 105% | 96.1% | 90.6% | – | – | – | – |
